Test results from ChEMBL document CHEMBL5375994, “Advances in Development of Selective Antitumor Inhibitors That Target PARP-1” (J Med Chem, 2023).

Key:
[1] = target: Poly [ADP-ribose] polymerase 2 (Homo sapiens, UniProt Q9UGN5); test: Inhibition of PARP-2 (unknown origin)
[2] = target: Poly [ADP-ribose] polymerase 1 (Homo sapiens, UniProt P09874); test: Inhibition of human recombinant PARP-1
Poly [ADP-ribose] polymerase 1, sequence (P09874 whole entry): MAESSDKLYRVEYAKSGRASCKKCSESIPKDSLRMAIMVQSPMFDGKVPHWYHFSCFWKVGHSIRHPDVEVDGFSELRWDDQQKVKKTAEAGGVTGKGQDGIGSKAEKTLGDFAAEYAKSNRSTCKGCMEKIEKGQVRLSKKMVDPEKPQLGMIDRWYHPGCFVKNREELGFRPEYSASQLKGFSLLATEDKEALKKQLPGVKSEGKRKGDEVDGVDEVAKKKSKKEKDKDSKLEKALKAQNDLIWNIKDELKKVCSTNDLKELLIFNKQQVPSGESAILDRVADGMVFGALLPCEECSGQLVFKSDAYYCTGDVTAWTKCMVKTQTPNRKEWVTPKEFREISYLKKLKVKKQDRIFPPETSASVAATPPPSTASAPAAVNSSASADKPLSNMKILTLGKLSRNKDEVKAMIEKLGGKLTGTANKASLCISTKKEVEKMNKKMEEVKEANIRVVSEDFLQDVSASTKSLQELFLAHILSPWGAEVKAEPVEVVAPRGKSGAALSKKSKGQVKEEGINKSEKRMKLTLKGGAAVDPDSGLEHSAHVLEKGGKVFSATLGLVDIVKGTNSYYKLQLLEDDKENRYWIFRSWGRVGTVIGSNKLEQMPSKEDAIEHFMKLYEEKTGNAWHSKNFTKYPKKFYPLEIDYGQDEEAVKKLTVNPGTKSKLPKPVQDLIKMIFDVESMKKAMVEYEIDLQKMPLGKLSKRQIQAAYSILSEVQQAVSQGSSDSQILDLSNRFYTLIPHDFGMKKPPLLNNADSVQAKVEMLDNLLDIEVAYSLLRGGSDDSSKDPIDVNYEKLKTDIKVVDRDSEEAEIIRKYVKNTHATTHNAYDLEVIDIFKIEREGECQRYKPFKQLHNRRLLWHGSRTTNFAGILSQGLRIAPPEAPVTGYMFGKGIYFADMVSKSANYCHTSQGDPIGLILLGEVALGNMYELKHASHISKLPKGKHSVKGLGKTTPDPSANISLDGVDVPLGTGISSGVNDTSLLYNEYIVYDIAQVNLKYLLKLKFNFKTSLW

Poly [ADP-ribose] polymerase 2, sequence (Q9UGN5 whole entry): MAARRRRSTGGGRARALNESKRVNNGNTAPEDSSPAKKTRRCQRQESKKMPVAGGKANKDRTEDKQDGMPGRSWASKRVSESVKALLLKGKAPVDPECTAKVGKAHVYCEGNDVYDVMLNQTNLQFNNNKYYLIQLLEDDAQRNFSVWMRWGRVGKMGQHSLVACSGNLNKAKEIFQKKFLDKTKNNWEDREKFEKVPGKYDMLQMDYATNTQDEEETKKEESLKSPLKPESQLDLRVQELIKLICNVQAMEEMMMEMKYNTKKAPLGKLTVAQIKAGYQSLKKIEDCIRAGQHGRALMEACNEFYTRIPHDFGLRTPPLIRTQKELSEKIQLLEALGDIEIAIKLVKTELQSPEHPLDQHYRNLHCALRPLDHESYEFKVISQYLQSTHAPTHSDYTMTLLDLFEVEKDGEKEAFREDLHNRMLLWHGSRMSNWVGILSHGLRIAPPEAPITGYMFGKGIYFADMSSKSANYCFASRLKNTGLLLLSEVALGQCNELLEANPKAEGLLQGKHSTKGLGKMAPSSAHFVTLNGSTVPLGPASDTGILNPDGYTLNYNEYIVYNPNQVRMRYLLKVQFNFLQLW

| Compound | IC50 [1] [nM] | IC50 [2] [nM] |
| --- | --- | --- |
| O=c1[nH]c(CCCN2CCC(c3ccc(F)cc3)CC2)nc2c(Cl)cccc12 | 500 | 13 |
| O=c1[nH]c(CCCN2CCC(c3ccccc3)CC2)nc2ccccc12 | 608 | 21 |
| O=c1[nH]c(CCCN2CCC(c3ccccc3)CC2)nc2c(Cl)cccc12 | 610 | 23 |
| O=c1[nH]c(CCCN2CCC(c3ccccc3)CC2)nc2cccc(Cl)c12 | 630 | 68 |

Stronger by IC50 [1], values ahead:

| IC50 [1] [nM] | IC50 [2] [nM] | Compound |
| --- | --- | --- |
| 167 | 16 | Cc1cccc2c(=O)[nH]c(CCCN3CCC(c4ccc(F)cc4)CC3)nc12 |
| 300 | 11 | O=c1[nH]c(CCCN2CCN(c3ccccc3)CC2)nc2cccc(Cl)c12 |
| 87 | 3 | N#Cc1ccc(C2CCN(CCCc3nc4c(Cl)cccc4c(=O)[nH]3)CC2)cc1 |
